The target of experiment [1] is T1, GHRHR Δ32 (Homo sapiens, UniProt Q02643).
T1 construct: expressed in transfected cells; host or cells: HEK293T
Briefly: cAMP accumulation. Format: cell-based. The settings on record: Table S2; operational model; τ corrected by cell surface expression; relative to WT GHRHR; mean ± SEM. The protocol:
Concentration-response curves were evaluated with a three-parameter logistic equation.

For experiment [2], the system named is 22Rv1 cells. Kind of experiment: cAMP accumulation in prostate cancer cells. Format: cell-based, human. The settings on record: concentration-response, Fig. 1E; 22Rv1 express high levels of SV1. The protocol:
(§1) Spodoptera frugiperda (Sf9) insect cells (Expression Systems) were grown in ESF 921 serum-free medium (Expression Systems) at 27 °C and 120 rpm. HEK293T cells were purchased from American Type Culture Collection (ATCC), cultured in Dulbecco’s modified Eagle’s medium (DMEM; Life Technologies), supplemented with 10% fetal bovine serum (FBS; Gibco), and maintained in a humidified chamber with 5% CO2 at 37 °C. The PC3 prostate cancer cell line (ATCC) was cultured in F12 medium supplemented with 10% FBS and maintained in a humidified chamber with 5% CO2 at 37 °C. 22Rv1 and LNCaP human prostate cancer cells (ATCC) were cultured in Roswell Park Memorial Institute (RPMI)-1640 medium supplemented with 10% FBS and maintained in a humidified atmosphere containing 5% CO2 at 37 °C.
(§2) GHRH-stimulated cAMP accumulation was measured by a LANCE Ultra cAMP kit (PerkinElmer). Briefly, HEK293T cells (24 h after transfection with SV1 or GHRHR) or prostate cancer cells were digested by 0.2% (wt/vol) EDTA and washed once with Dulbecco’s phosphate-buffered saline (PBS). Cells were then resuspended with stimulation buffer (Hanks’ balanced salt solution [HBSS] supplemented with 5 mM HEPES, 0.5 mM IBMX, and 0.1% [wt/vol] bovine serum albumin [BSA], pH 7.4) to a density of 0.6 million cells per milliliter and added to 384-well white plates (3,000 cells per well). […] The reaction was stopped by adding 5 μL Eu-cAMP tracer and 5 μL ULight-anti-cAMP. After 1 h RT incubation, TR-FRET signals (excitation: 320 nm, emission: 615 and 665 nm) were measured by an Envision plate reader (PerkinElmer). cAMP concentrations were interpolated by a standard curve.

In experiment [3] the test system is LNCaP cells. Briefly: cAMP accumulation in prostate cancer cells. The format is cell-based, human. The settings on record: concentration-response, Fig. 1E; LNCaP express high levels of GHRHR. As to the method: as §1, §2
For orientation: Changes in cAMP serve as a functional read-out for many G protein-coupled receptors.

In experiment [4] the test system is PC3 cells. Briefly: cAMP accumulation in prostate cancer cells. The settings on record: concentration-response, Fig. 1E; PC3 low expression of both. Format: cell-based, human. The protocol: as §1, §2
Experiment [5] has as its system GHRHR ECD mutants (L34, L62, F82, F85 to alanine). Briefly: β-arrestin 1/2 recruitment (BRET), GHRHR ECD alanine mutants. The settings on record: HEK293T. Format: cell-based, human. As to the method: HEK293T cells were seeded at a density of 30,000 cells per well into 96-well culture plates pretreated with poly-D-lysine hydrobromide. After incubation for 24 h to reach 70% to 80% confluence, the cells were transiently transfected with HA-Flag-GHRHR-Rluc8 or HA-Flag-SV1-Rluc8 and β-arrestin 1/2-Venus at a 1:9 mass ratio using lipofectamine 3000 reagent (Invitrogen) and cultured for another 24 h. Thereafter, cells were washed once and incubated for 30 min at 37 °C with HBSS buffer (pH 7.4) supplemented with 0.1% BSA and 10 mM HEPES. Five micromolars of coelenterazine h (YEASEN Biotechnology) was then added and incubated for 5 min in the dark. The bioluminescence resonance energy transfer (BRET) signals were detected with an Envision plate reader by calculating the ratio of emission at 535 nm over emission at 470 nm.
A general note: In BRET a luciferase serves as donor, and the signal depends on an acceptor being close.

In experiment [6] the test system is 22Rv1 cells. Briefly: ERK1/2 phosphorylation in prostate cancer cells. The settings on record: 1 μM GHRH; among three prostate cancer cell lines. Format: cell-based, human. The protocol:
as §1
ERK1/2 phosphorylation was detected with the AlphaScreen SureFire ERK1/2 assay kit (PerkinElmer). […] The plate was incubated in the dark at 37 °C for 1 h, after which the fluorescence signal was measured by an Envision plate reader using standard AlphaScreen settings.
The cells were then lysed with radioimmunoprecipitation assay lysis buffer (Sigma-Aldrich) on ice for 5 min and centrifuged at 12,000 rpm for 15 min. Protein concentration of the supernatant was determined by BCA protein assay kit (Beyotime). […]

The test system of experiment [7] is GHRHR ECD mutants (L34, L62, F82, F85 to alanine). Kind of experiment: cAMP accumulation, ECD alanine mutants of GHRHR. The format is cell-based, human. The settings on record: any or all of four ECD residues (L34, L62, F82, F85) to alanine; HEK293T. As to the method:
as §2

T1 sequence (Q02643 33-423 limits assumed, stated change not applied): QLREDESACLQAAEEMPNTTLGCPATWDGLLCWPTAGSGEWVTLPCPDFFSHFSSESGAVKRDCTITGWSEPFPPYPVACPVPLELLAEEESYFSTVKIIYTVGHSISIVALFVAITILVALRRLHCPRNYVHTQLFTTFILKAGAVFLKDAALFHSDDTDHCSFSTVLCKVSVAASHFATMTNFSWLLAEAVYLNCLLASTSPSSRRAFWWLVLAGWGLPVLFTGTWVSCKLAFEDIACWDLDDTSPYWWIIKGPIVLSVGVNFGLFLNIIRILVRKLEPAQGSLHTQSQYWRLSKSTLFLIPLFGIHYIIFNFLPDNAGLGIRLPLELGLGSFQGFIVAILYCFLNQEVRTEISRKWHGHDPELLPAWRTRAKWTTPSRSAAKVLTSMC

Turning to `CC[C@H](C)[C@H](NC(=O)[C@H](C)NC(=O)[C@H](CC(=O)O)NC(=O)[C@H](C)NC(=O)[C@@H](N)Cc1ccc(O)cc1)C(=O)N[C@@H](Cc1ccccc1)C(=O)N[C@H](C(=O)N[C@@H](CC(N)=O)C(=O)N[C@@H](CO)C(=O)N[C@@H](Cc1ccc(O)cc1)C(=O)N[C@@H](CCCNC(=N)N)C(=O)N[C@@H](CCCCN)C(=O)N[C@H](C(=O)N[C@@H](CC(C)C)C(=O)NCC(=O)N[C@@H](CCC(N)=O)C(=O)N[C@@H](CC(C)C)C(=O)N[C@@H](CO)C(=O)N[C@@H](C)C(=O)N[C@@H](CCCNC(=N)N)C(=O)N[C@@H](CCCCN)C(=O)N[C@@H](CC(C)C)C(=O)N[C@@H](CC(C)C)C(=O)N[C@@H](CCC(N)=O)C(=O)N[C@@H](CC(=O)O)C(=O)N[C@H](C(=O)N[C@@H](CCSC)C(=O)N[C@@H](CO)C(=O)N[C@@H](CCCNC(=N)N)C(=O)N[C@@H](CCC(N)=O)C(=O)N[C@@H](CCC(N)=O)C(=O)NCC(=O)N[C@@H](CCC(=O)O)C(=O)N[C@@H](CO)C(=O)N[C@@H](CC(N)=O)C(=O)N[C@@H](CCC(N)=O)C(=O)N[C@@H](CCC(=O)O)C(=O)N[C@@H](CCCNC(=N)N)C(=O)NCC(=O)N[C@@H](C)C(=O)N[C@@H](CCCNC(=N)N)C(=O)N[C@@H](C)C(=O)N[C@@H](CCCNC(=N)N)C(=O)N[C@@H](CC(C)C)C(N)=O)[C@@H](C)CC)C(C)C)[C@@H](C)O` [GHRH, growth hormone–releasing hormone], in experiment [1], the “ΔLog (τ/KA)” value was -3.23 ± 0.04. Also, the cAMP response entry in experiment [2] was “either markedly reduced or marginal cAMP responses”; in experiment [3] it was “strongest cAMP response”; in experiment [4], “either markedly reduced or marginal cAMP responses”. Also, the “β-arrestin 1/2 recruitments” value was “enhanced β-arrestin 1/2 recruitments” in experiment [5] (F82A and F85A mutants of GHRHR); “enhanced β-arrestin 1/2 recruitments” in experiment [5] (any or all of four ECD residues (L34, L62, F82, F85) to alanine). The pERK1/2 response entry in experiment [6] was “markedly stronger and longer pERK1/2 response”. Also, in experiment [7], the “GHRHR-elicited cAMP responses” value is “reduced GHRHR-elicited cAMP responses”.

Values taken from publication PMC8501799, “Constitutive signal bias mediated by the human GHRHR splice variant 1” (Proceedings of the National Academy of Sciences of the …, 2021).
